Data from the supplement of paper PMC9663587.

How the values were obtained:
senexin b = compound: CN1CCN(C(=O)c2ccc3cc(CCNc4ncnc5ccc(C#N)cc45)ccc3c2)CC1 [senexin b]
BSJ-01-175 = compound: CN(C)C/C=C/C(=O)Nc1ccc(O[C@@H]2CCC[C@@H](Nc3ncc(Cl)c(-c4c[nH]c5ccccc45)n3)C2)cc1 [BSJ-01-175]
Ceritinib/LDK378 = compound: Cc1cc(Nc2ncc(Cl)c(Nc3ccccc3S(=O)(=O)C(C)C)n2)c(OC(C)C)cc1C1CCNCC1 [Ceritinib/LDK378]
Rucaparib = compound: CNCc1ccc(-c2[nH]c3cc(F)cc4c3c2CCNC4=O)cc1 [Rucaparib]
Tivantinib/ARQ197 = compound: O=C1NC(=O)[C@@H](c2cn3c4c(cccc24)CCC3)[C@@H]1c1c[nH]c2ccccc12 [Tivantinib/ARQ197]
Paclitaxel = compound: CC(=O)O[C@H]1C(=O)[C@@]2(C)[C@H]([C@H](OC(=O)c3ccccc3)[C@]3(O)C[C@H](OC(=O)[C@H](O)[C@@H](NC(=O)c4ccccc4)c4ccccc4)C(C)=C1C3(C)C)[C@]1(OC(C)=O)CO[C@@H]1C[C@@H]2O [Paclitaxel]
AZD6738 = compound: C[C@@H]1COCCN1c1cc(C2([S@](C)(=N)=O)CC2)nc(-c2cc[nH]c3nccc2-3)n1 [AZD6738]
THZ531 [1] = compound: T1, CN(C)C/C=C/C(=O)Nc1ccc(C(=O)N2CCC[C@@H](Nc3ncc(Cl)c(-c4c[nH]c5ccccc45)n3)C2)cc1 [THZ531]
Cediranib/AZD2171 = compound: COc1cc2c(Oc3ccc4[nH]c(C)cc4c3F)ncnc2cc1OCCCN1CCCC1 [Cediranib/AZD2171]
Pictilisib/GDC0941 = compound: CS(=O)(=O)N1CCN(Cc2cc3nc(-c4cccc5[nH]ncc45)nc(N4CCOCC4)c3s2)CC1 [Pictilisib/GDC0941]
BSJ-03-123 = compound: CC(=O)c1c(C)c2cnc(Nc3ccc(N4CCN(CCOCCOCCOCCNC(=O)COc5cccc6c5C(=O)N(C5CCC(=O)NC5=O)C6=O)CC4)cn3)nc2n(C2CCCC2)c1=O [BSJ-03-123]; assay: GR value, 72 h; higher = faster growth (1 = untreated, <0 = killing);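 also: breast cancer and non-malignant breast epithelial lines, nine half-log doses, viable cells counted by Hoechst and LIVE/DEAD dye imaging versus time-zero plates and DMSO controls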
[2] = compound: CCc1cnn2c(NCc3ccc[n+]([O-])c3)cc(N3CCCC[C@H]3CCO)nc12; assay: as above
[3] = compound: CCN1CCN(Cc2ccc(Nc3ncc(F)c(-c4cc(F)c5nc(C)n(C(C)C)c5c4)n3)nc2)CC1; assay: as above
YKL-5-124 = compound: C=CC(=O)Nc1ccc(C(=O)Nc2[nH]nc3c2CN(C(=O)N[C@H](CN(C)C)c2ccccc2)C3(C)C)cc1 [YKL-5-124]; assay: as above
LEE011/Ribociclib = compound: CN(C)C(=O)c1cc2cnc(Nc3ccc(N4CCNCC4)cn3)nc2n1C1CCCC1 [LEE011/Ribociclib]; assay: as above
[4] = compound: CC(=O)c1c(C)c2cnc(Nc3ccc(N4CCNCC4)cn3)nc2n(C2CCCC2)c1=O; assay: as above
THZ1 = compound: CN(C)C/C=C/C(=O)Nc1ccc(C(=O)Nc2cccc(Nc3ncc(Cl)c(-c4c[nH]c5ccccc45)n3)c2)cc1 [THZ1]; assay: as above
THZ531 [5] = compound: T1, THZ531; assay: as above
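For GR50, 72 h in this document: breast cancer and non-malignant breast epithelial cell lines, Deep Dye Drop or Dye Drop imaging, nine half-log doses, GR normalized to time-zero plates and DMSO-only controls.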

Cell Line: SUM149
- GR50, 72 h (senexin b): > 10 µM
- GR50, 72 h (BSJ-01-175): 0.0356 µM
- GR50, 72 h (Ceritinib/LDK378): 1.7 µM
- GR50, 72 h (Rucaparib): > 10 µM
- GR50, 72 h (Tivantinib/ARQ197): 0.281 µM
- GR50, 72 h (Paclitaxel): 0.00159 µM
- GR50, 72 h (AZD6738): 3.87 µM
- GR50, 72 h (THZ531 [1]): 0.345 µM
- GR50, 72 h (Cediranib/AZD2171): 5.18 µM
- GR50, 72 h (Pictilisib/GDC0941): 6.06 µM
- GR value (BSJ-03-123; 0.001 µM): 0.996 GR
- GR value (BSJ-03-123; 0.003162 µM): 0.91 GR
- GR value (BSJ-03-123; 0.01 µM): 0.904 GR
- GR value (BSJ-03-123; 0.03162 µM): 0.794 GR
- GR value (BSJ-03-123; 0.1 µM): 0.81 GR
- GR value (BSJ-03-123; 0.3162 µM): 0.72 GR
- GR value (BSJ-03-123; 1 µM): 0.579 GR
- GR value (BSJ-03-123; 3.162 µM): 0.428 GR
- GR value (BSJ-03-123; 10 µM): 0.0273 GR
- GR value ([2]; 0.0001 µM): 1.01 GR
- GR value ([2]; 0.0003162 µM): 1.04 GR
- GR value ([2]; 0.001 µM): 1.01 GR
- GR value ([2]; 0.003162 µM): 1.03 GR
- GR value ([2]; 0.01 µM): 0.828 GR
- GR value ([2]; 0.03162 µM): -0.457 GR
- GR value ([2]; 0.1 µM): -0.575 GR
- GR value ([2]; 0.3162 µM): -0.578 GR
- GR value ([2]; 1 µM): -0.561 GR
- GR value ([3]; 0.001 µM): 0.973 GR
- GR value ([3]; 0.003162 µM): 1.02 GR
- GR value ([3]; 0.01 µM): 0.875 GR
- GR value ([3]; 0.03162 µM): 0.751 GR
- GR value ([3]; 0.1 µM): 0.666 GR
- GR value ([3]; 0.3162 µM): 0.562 GR
- GR value ([3]; 1 µM): 0.417 GR
- GR value ([3]; 3.162 µM): 0.375 GR
- GR value ([3]; 10 µM): 0.0944 GR
- GR value (YKL-5-124; 0.001 µM): 0.351 GR
- GR value (YKL-5-124; 0.003162 µM): 0.226 GR
- GR value (YKL-5-124; 0.01 µM): 0.228 GR
- GR value (YKL-5-124; 0.03162 µM): 0.141 GR
- GR value (YKL-5-124; 0.1 µM): 0.132 GR
- GR value (YKL-5-124; 0.3162 µM): 0.114 GR
- GR value (YKL-5-124; 1 µM): 0.0596 GR
- GR value (YKL-5-124; 3.162 µM): 0.0431 GR
- GR value (YKL-5-124; 10 µM): -0.104 GR
- GR value (LEE011/Ribociclib; 0.001 µM): 0.951 GR
- GR value (LEE011/Ribociclib; 0.003162 µM): 0.904 GR
- GR value (LEE011/Ribociclib; 0.01 µM): 0.916 GR
- GR value (LEE011/Ribociclib; 0.03162 µM): 0.885 GR
- GR value (LEE011/Ribociclib; 0.1 µM): 0.776 GR
- GR value (LEE011/Ribociclib; 0.3162 µM): 0.771 GR
- GR value (LEE011/Ribociclib; 1 µM): 0.764 GR
- GR value (LEE011/Ribociclib; 3.162 µM): 0.669 GR
- GR value (LEE011/Ribociclib; 10 µM): 0.599 GR
- GR value ([4]; 0.0003162 µM): 1.02 GR
- GR value ([4]; 0.001 µM): 1.03 GR
- GR value ([4]; 0.003162 µM): 0.983 GR
- GR value ([4]; 0.01 µM): 0.981 GR
- GR value ([4]; 0.03162 µM): 0.82 GR
- GR value ([4]; 0.1 µM): 0.701 GR
- GR value ([4]; 0.3162 µM): 0.623 GR
- GR value ([4]; 1 µM): 0.567 GR
- GR value ([4]; 3.162 µM): 0.485 GR
- GR value (THZ1; 0.0001 µM): 0.968 GR
- GR value (THZ1; 0.0003162 µM): 0.963 GR
- GR value (THZ1; 0.001 µM): 1.04 GR
- GR value (THZ1; 0.003162 µM): 0.927 GR
- GR value (THZ1; 0.01 µM): 0.923 GR
- GR value (THZ1; 0.03162 µM): 0.704 GR
- GR value (THZ1; 0.1 µM): 0.165 GR
- GR value (THZ1; 0.3162 µM): -0.351 GR
- GR value (THZ1; 1 µM): -0.506 GR
- GR value (THZ531 [5]; 0.0001 µM): 0.986 GR
- GR value (THZ531 [5]; 0.0003162 µM): 0.996 GR
- GR value (THZ531 [5]; 0.001 µM): 0.931 GR
- GR value (THZ531 [5]; 0.003162 µM): 1.03 GR
- GR value (THZ531 [5]; 0.01 µM): 1.05 GR
- GR value (THZ531 [5]; 0.03162 µM): 0.999 GR
- GR value (THZ531 [5]; 0.1 µM): 0.963 GR
- GR value (THZ531 [5]; 0.3162 µM): 0.598 GR
- GR value (THZ531 [5]; 1 µM): -0.539 GR
